According to the NIST ThermoML archive (doi:10.1016/j.jct.2016.02.014):

Test: xn = mol fraction of the nth substance listed
Settings: 100 kPa, Liquid; for viscosity: Capillary tube (Ostwald / Ubbelohde) method; for mass density: Vibrating tube method

O=C1CCCO1 [γ-butyrolactone] + CCCCn1cc[n+](C)c1.N#CN=C=[N-]
Settings	mass density [kg/m3]	viscosity [mPa·s]
273.15 K, x2 = 0	1149.15	2.69
273.15 K, x2 = 0.0504	1142.33	3.61
273.15 K, x2 = 0.1002	1136.31	4.65
273.15 K, x2 = 0.2002	1124.63	7.69
273.15 K, x2 = 0.2984	1114.82	11.85
273.15 K, x2 = 0.4005	1106.01	17.81
273.15 K, x2 = 0.4954	1099.09	24.81
273.15 K, x2 = 0.6957	1087.48	45.75
273.15 K, x2 = 0.8871	1079.17	74.11
283.15 K, x2 = 0	1139.31	2.21
283.15 K, x2 = 0.0504	1133.08	2.94
283.15 K, x2 = 0.1002	1127.5	3.73
283.15 K, x2 = 0.2002	1116.53	5.87
283.15 K, x2 = 0.2984	1107.21	8.75
283.15 K, x2 = 0.4005	1098.76	12.54
283.15 K, x2 = 0.4954	1092.29	16.9
283.15 K, x2 = 0.6957	1081.06	29.14
283.15 K, x2 = 0.8871	1072.88	44.36
293.15 K, x2 = 0	1129.49	1.86
293.15 K, x2 = 0.0504	1123.86	2.42
293.15 K, x2 = 0.1002	1118.73	2.97
293.15 K, x2 = 0.2002	1108.38	4.53
293.15 K, x2 = 0.2984	1099.49	6.68
293.15 K, x2 = 0.4005	1091.44	9.31
293.15 K, x2 = 0.4954	1085.13	12.22
293.15 K, x2 = 0.6957	1074.27	19.95
293.15 K, x2 = 0.8871	1066.34	28.87
298.15 K, x2 = 0	1124.59	1.71
298.15 K, x2 = 0.0504	1119.26	2.22
298.15 K, x2 = 0.1002	1114.35	2.77
298.15 K, x2 = 0.2002	1104.32	4.16
298.15 K, x2 = 0.2984	1095.65	5.92
298.15 K, x2 = 0.4005	1087.78	8.18
298.15 K, x2 = 0.4954	1081.58	10.57
298.15 K, x2 = 0.6957	1070.9	16.81
298.15 K, x2 = 0.8871	1063.09	23.85
303.15 K, x2 = 0	1119.68	1.59
303.15 K, x2 = 0.0504	1114.67	2.03
303.15 K, x2 = 0.1002	1109.99	2.5
303.15 K, x2 = 0.2002	1100.28	3.81
303.15 K, x2 = 0.2984	1091.83	5.27
303.15 K, x2 = 0.4005	1084.14	7.14
303.15 K, x2 = 0.4954	1078.05	9.15
303.15 K, x2 = 0.6957	1067.55	14.23
303.15 K, x2 = 0.8871	1059.86	19.86
313.15 K, x2 = 0	1109.87	1.37
313.15 K, x2 = 0.0504	1105.49	1.74
313.15 K, x2 = 0.1002	1101.27	2.14
313.15 K, x2 = 0.2002	1092.23	3.14
313.15 K, x2 = 0.2984	1084.22	4.27
313.15 K, x2 = 0.4005	1076.84	5.64
313.15 K, x2 = 0.4954	1071.02	7.11
313.15 K, x2 = 0.6957	1060.89	10.69
313.15 K, x2 = 0.8871	1053.44	14.53
323.15 K, x2 = 0	1100.05	1.2
323.15 K, x2 = 0.0504	1096.31	1.52
323.15 K, x2 = 0.1002	1092.59	1.83
323.15 K, x2 = 0.2002	1084.21	2.63
323.15 K, x2 = 0.2984	1076.75	3.56
323.15 K, x2 = 0.4005	1069.73	4.6
323.15 K, x2 = 0.4954	1064.05	5.7
323.15 K, x2 = 0.6957	1054.29	8.38
323.15 K, x2 = 0.8871	1047.09	11.03
